Results: patent US7109193B2, “Tricyclic diazepines tocolytic oxytocin receptor antagonists” (Wyeth, priority 2001, dated 2006)

Question: Which melting point does the source give for Cc1cc(C(=O)N2Cc3ccc(C(=O)O)n3Cc3ccccc32)ccc1-c1ccccc1C(F)(F)F here?
Answer: 233 to 235 °C

Question: For COc1cc(-c2ccccc2F)c(Cl)cc1C(=O)N1Cc2ccc(C(=O)O)n2Cc2ccccc21, which melting point is on record?
Answer: 207 to 208 °C

Question: Which melting point does the source give for COc1cc(-c2ccccc2C)ccc1C(=O)N1Cc2ccc(C(=O)O)n2Cc2ccccc21 here?
Answer: 201 to 204 °C
